Data as given in patent publication US8633183B2 (priority 2010, dated 2014).

Biological target: PI3Kalpha (Homo sapiens (Human), UniProt P42336)
Details: read-out: IC50 PI3K

PI3Kalpha, sequence (P42336 whole entry, looked up): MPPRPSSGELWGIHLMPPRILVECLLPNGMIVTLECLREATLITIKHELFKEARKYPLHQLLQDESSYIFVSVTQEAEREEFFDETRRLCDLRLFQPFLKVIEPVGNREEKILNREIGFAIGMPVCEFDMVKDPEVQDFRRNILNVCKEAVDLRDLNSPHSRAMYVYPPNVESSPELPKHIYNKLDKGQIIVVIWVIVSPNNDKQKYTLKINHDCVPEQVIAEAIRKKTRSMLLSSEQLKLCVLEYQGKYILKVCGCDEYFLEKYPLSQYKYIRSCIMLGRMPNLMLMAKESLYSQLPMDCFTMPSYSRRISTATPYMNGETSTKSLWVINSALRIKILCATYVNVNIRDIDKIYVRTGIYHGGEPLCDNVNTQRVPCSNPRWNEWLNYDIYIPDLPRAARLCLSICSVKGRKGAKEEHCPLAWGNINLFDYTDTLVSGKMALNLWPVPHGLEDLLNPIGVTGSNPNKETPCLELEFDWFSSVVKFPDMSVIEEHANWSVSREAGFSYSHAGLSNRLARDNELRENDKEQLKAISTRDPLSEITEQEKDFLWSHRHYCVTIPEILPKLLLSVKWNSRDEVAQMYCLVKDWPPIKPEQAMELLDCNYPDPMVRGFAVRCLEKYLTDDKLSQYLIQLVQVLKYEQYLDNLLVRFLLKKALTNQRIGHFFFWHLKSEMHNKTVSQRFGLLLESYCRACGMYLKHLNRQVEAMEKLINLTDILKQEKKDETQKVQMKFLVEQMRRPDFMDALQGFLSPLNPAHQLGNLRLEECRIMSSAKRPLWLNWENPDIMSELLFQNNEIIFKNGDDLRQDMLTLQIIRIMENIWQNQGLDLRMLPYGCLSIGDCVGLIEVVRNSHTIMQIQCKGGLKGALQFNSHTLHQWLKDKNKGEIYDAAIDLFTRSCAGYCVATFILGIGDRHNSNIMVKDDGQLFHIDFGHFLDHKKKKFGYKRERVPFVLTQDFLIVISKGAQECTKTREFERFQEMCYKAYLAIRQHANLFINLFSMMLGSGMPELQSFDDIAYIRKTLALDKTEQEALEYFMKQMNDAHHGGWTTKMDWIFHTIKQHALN

CCc1ncnc(-c2cc(F)c(C(=O)N3CCC4(CC3)COC4)c(F)c2)c1C#Cc1ccc(N)nc1 [Example E-150]
IC50: 120 nM

CCc1ncnc(-c2cc(F)c(C(=O)N3CCn4c(C)cnc4C3)c(Cl)c2)c1C#Cc1ccc(N)nc1 [Example E-157]
IC50: 37.5 nM

CCc1ncnc(-c2ccc(C(=O)N3CCC4(CN(C(=O)OC(C)(C)C)C4)C3)c(F)c2)c1C#Cc1ccc(N)nc1 [Example E-323]
IC50: 842 nM

CCc1ncnc(-c2ccc(C(=O)N3CCC(N4CCN(C)CC4)CC3)c(OC)c2)c1C#Cc1ccc(N)nc1 [Example E-45]
IC50: 96.9 nM

CCc1ncnc(-c2ccc(C(=O)N3CCC4(CCN(C)CC4)CC3)c(C)c2)c1C#Cc1ccc(N)nc1 [Example E-97]
IC50: 367 nM

CCc1ncnc(-c2ccc(C(=O)N3CCN(C)C(=O)C3)c(F)c2)c1C#Cc1ccc(N)nc1 [Example D-133]
IC50: 115 nM

CCc1ncnc(-c2ccc(C(=O)N(C)CC3CCCN(C)C3)c(F)c2)c1C#Cc1ccc(N)nc1 [Example D-73]
IC50: 324 nM

CCc1ncnc(-c2cc(Cl)c(C(=O)N3CCN(CC)CC3)c(Cl)c2)c1C#Cc1ccc(N)nc1 [Example E-198]
IC50: 90.9 nM

CCc1ncnc(-c2ccc(C(=O)N3CCN4CCC[C@H]4C3)c(F)c2)c1C#Cc1ccc(N)nc1 [Example E-142]
IC50: 107 nM

CCc1ncnc(-c2cc(F)c(C(=O)N3CCN(C4COC4)CC3)c(Cl)c2)c1C#Cc1ccc(N)nc1 [Example E-282]
IC50: 173 nM

CCc1ncnc(-c2ccc(C(=O)NC3CCN(C)C3)c(F)c2)c1C#Cc1ccc(N)nc1 [Example D-199]
IC50: 347 nM

CCc1ncnc(-c2ccc(C(=O)NCC3CCN(C)CC3)c(F)c2)c1C#Cc1ccc(N)nc1 [Example D-77]
IC50: 303 nM

CCc1ncnc(-c2ccc(C(=O)N3CCN(c4ccncc4)CC3)c(C)c2)c1C#Cc1ccc(N)nc1 [Example E-131]
IC50: 158 nM

CCc1ncnc(-c2ccc(C(=O)N3CCn4ccnc4C3)c(Cl)c2)c1C#Cc1ccc(N)nc1 [Example E-256]
IC50: 23 nM

CCc1ncnc(-c2cc(F)c(C(=O)N3CCN(C)CC3)c(F)c2)c1C#Cc1ccc(NC)nc1 [Example E-210]
IC50: 388 nM

CCc1ncnc(-c2ccc(S(C)(=O)=O)cc2)c1C#Cc1ccc(N)nc1 [Example C-14]
IC50: 66 nM

COc1ccc(-c2ncnc(C)c2C#Cc2ccc(N)nc2)cn1 [Example C-23]
IC50: 78 nM

CCc1ncnc(-c2cc(F)c(C(=O)N3CCN(CC(C)(C)O)CC3)c(Cl)c2)c1C#Cc1ccc(N)nc1 [Example E-240]
IC50: 115 nM

CCc1ncnc(-c2ccc(C(=O)N3CCC(N4CCCCC4)CC3)c(C)c2)c1C#Cc1ccc(N)nc1 [Example E-109]
IC50: 259 nM

CCc1ncnc(-c2cc(F)c(C(=O)N3CCN(CC)CC3)c(F)c2)c1C#Cc1ccc(NC)nc1 [Example E-211]
IC50: 472 nM

CCc1ncnc(-c2ccc(C(=O)N3CCC(O)(c4ccccc4)CC3)c(F)c2)c1C#Cc1ccc(N)nc1 [Example D-126]
IC50: 142 nM

CCNc1ccc(C#Cc2c(CC)ncnc2-c2ccc(C(=O)N3CCN(CCCS(C)(=O)=O)CC3)c(F)c2)cn1 [Example E-258]
IC50: 110 nM

CCc1ncnc(-c2ccc(C(=O)N3CCC(CN(C)C)CC3)c(F)c2)c1C#Cc1ccc(N)nc1 [Example E-272]
IC50: 475 nM

CCc1ncnc(-c2ccc(C(=O)N(C)O)c(Cl)c2)c1C#Cc1ccc(N)nc1 [Example E-35]
IC50: 67.4 nM

CCc1ncnc(-c2ccc(C(=O)N3CCOCC3)c(OC)c2)c1C#Cc1ccc(N)nc1 [Example E-48]
IC50: 100 nM

Cc1ncnc(-c2ccc(C(=O)N(C)C)c(F)c2)c1C#Cc1ccc(N)nc1 [Example C-11]
IC50: 47 nM

CCc1ncnc(-c2ccc(C(=O)N3CCN(C(C)(C)C)CC3)c(OC)c2)c1C#Cc1ccc(N)nc1 [Example D-48]
IC50: 251 nM

CCc1ncnc(-c2ccc(C(=O)N3CCN(CC(F)F)CC3)c(F)c2)c1C#Cc1ccc(N)nc1C [Example D-12]
IC50: 163 nM

CCc1ncnc(-c2ccc(C(=O)N3CCN(C)CC3)nc2)c1C#Cc1ccc(N)nc1 [Example D-240]
IC50: 214 nM

CCc1ncnc(-c2ccc(C(=O)N3CCC[C@H]3CO)c(F)c2)c1C#Cc1ccc(N)nc1 [Example D-135]
IC50: 136 nM

CCc1ncnc(-c2ccc(C(=O)N3CCN(C4CCOCC4)CC3)c(F)c2)c1C#Cc1ccc(N)nc1 [Example D-84]
IC50: 127 nM

CCc1ncnc(-c2ccc(C(=O)NCC3CCCN(C)C3)c(F)c2)c1C#Cc1ccc(N)nc1 [Example D-74]
IC50: 630 nM

CCc1ncnc(-c2ccc(C(=O)N3CCN4CCC[C@H]4C3)c(Cl)c2)c1C#Cc1ccc(N)nc1 [Example E-141]
IC50: 260 nM

CCc1ncnc(-c2ccc(C(=O)N3CCN(C(C)CC)CC3)c(F)c2)c1C#Cc1ccc(N)nc1 [Example D-129]
IC50: 392 nM

CCc1ncnc(-c2ccc(C(=O)NC[C@H]3CCCN3CC)c(F)c2)c1C#Cc1ccc(N)nc1 [Example D-200]
IC50: 566 nM

CCc1ncnc(-c2ccc(C(=O)N3CC[C@@H](N(C)C)C3)c(OC(F)(F)F)c2)c1C#Cc1ccc(N)nc1 [Example E-224]
IC50: 402 nM

CCc1ncnc(-c2ccc(C(=O)N3CCn4c(C)cnc4C3)c(F)c2)c1C#Cc1ccc(N)nc1 [Example E-247]
IC50: 95.4 nM

CCc1ncnc(-c2ccc(C(=O)N3CCC(N4CCOCC4)C3)c(F)c2)c1C#Cc1ccc(N)nc1 [Example D-234]
IC50: 156 nM

CCc1ncnc(-c2ccc(F)c(C(=O)N(C)C)c2)c1C#Cc1ccc(N)nc1 [Example C-15]
IC50: 189 nM

CCc1ncnc(-c2ccc(C(=O)NC3CC(C)(C)N(C)C(C)(C)C3)c(F)c2)c1C#Cc1ccc(N)nc1 [Example D-202]
IC50: 413 nM

CCc1ncnc(-c2ccc(C(=O)N3CCN(CCO)CC3)c(OC)c2)c1C#Cc1ccc(N)nc1 [Example D-57]
IC50: 152 nM

CCc1ncnc(-c2ccc(C(=O)N3CCN(CC(F)F)CC3)c(F)c2)c1C#Cc1ccc(N)nc1 [Example D-61]
IC50: 86 nM

Cc1ncnc(-c2ccc(C(=O)N3CC(O)CO3)c(F)c2)c1C#Cc1ccc(N)nc1 [Example D-228]
IC50: 52 nM

CCc1ncnc(-c2ccc(C(=O)N3CCC4(CNC4)C3)c(F)c2)c1C#Cc1ccc(N)nc1 [Example E-324]
IC50: 935 nM

CCc1ncnc(-c2ccc(C(=O)NCCOC)c(Cl)c2)c1C#Cc1ccc(N)nc1 [Example D-33]
IC50: 181 nM

CCc1ncnc(-c2ccc(C(=O)N3CCN(Cc4cc(C)no4)CC3)c(F)c2)c1C#Cc1ccc(N)nc1 [Example E-290]
IC50: 200 nM

CCc1ncnc(-c2cc(F)c(C(=O)N3CCC(C)(O)CC3)c(F)c2)c1C#Cc1ccc(NC)nc1 [Example E-218]
IC50: 362 nM

Cc1ncnc(-c2cccc(C(=O)N3CCOCC3)c2)c1C#Cc1ccc(N)nc1 [Example C-37]
IC50: 224 nM

Cc1ncnc(-c2ccc(C(=O)N(C)C)cc2)c1C#Cc1ccc(N)nc1 [Example C-6]
IC50: 86 nM

CCc1ncnc(-c2cc(F)c(C(=O)N(C)C)c(F)c2)c1C#Cc1ccc(N)nc1 [Example E-10]
IC50: 49.1 nM

CCc1ncnc(-c2ccc(C(=O)N3CCC(N4CCOCC4)CC3)c(OC(F)(F)F)c2)c1C#Cc1ccc(N)nc1 [Example E-228]
IC50: 356 nM

CCc1ncnc(-c2ccc(C(=O)N3CC[C@@H](N(C)C)C3)c(F)c2)c1C#Cc1ccc(NC)nc1 [Example E-180]
IC50: 357 nM

CCc1ncnc(-c2cc(F)c(C(=O)N3CCN(CCC#N)CC3)c(F)c2)c1C#Cc1ccc(NC)nc1 [Example E-221]
IC50: 213 nM

CCc1ncnc(-c2cc(F)c(C(=O)N3CCN(C)C(=O)C3)c(F)c2)c1C#Cc1ccc(NC)nc1 [Example E-208]
IC50: 176 nM

CCc1ncnc(-c2ccc(C(=O)N3CCC(OC)CC3)c(Cl)c2)c1C#Cc1ccc(N)nc1 [Example D-142]
IC50: 94 nM

CCc1ncnc(-c2ccc(C(=O)N3CCN(CC(C)O)CC3)c(F)c2)c1C#Cc1ccc(N)nc1 (centres unmarked) [Example E-296]
IC50: 122 nM

CCc1ncnc(-c2ccc(C(=O)N3CCC(C(C)(C)O)CC3)c(F)c2)c1C#Cc1ccc(NC)nc1 [Example E-177]
IC50: 337 nM

CCc1ncnc(-c2ccc(C(=O)N3CCN(c4ccncc4)CC3)c(Cl)c2)c1C#Cc1ccc(N)nc1 [Example E-37]
IC50: 209 nM

CCc1ncnc(-c2ccc(C(=O)N(C)CC3CCN(C)CC3)c(F)c2)c1C#Cc1ccc(N)nc1 [Example D-76]
IC50: 339 nM

CCc1ncnc(-c2ccc(C(=O)N3CCN4CCCC[C@@H]4C3)c(F)c2)c1C#Cc1ccc(N)nc1 [Example E-145]
IC50: 358 nM

CCc1ncnc(-c2ccc(C(=O)N3CCC(N4CCCCC4)CC3)c(F)c2)c1C#Cc1ccc(N)nc1 [Example D-70]
IC50: 490 nM

CCc1ncnc(-c2cc(F)c(C(=O)N3CCn4c(C)cnc4C3)c(F)c2)c1C#Cc1ccc(N)nc1 [Example E-149]
IC50: 85.8 nM

CCCCN1CCN(C(=O)c2ccc(-c3ncnc(CC)c3C#Cc3ccc(N)nc3)cc2Cl)CC1 [Example D-29]
IC50: 162 nM

CCCN1CCN(C(=O)c2c(F)cc(-c3ncnc(CC)c3C#Cc3ccc(N)nc3)cc2F)CC1 [Example E-4]
IC50: 133 nM

CCc1ncnc(-c2ccc(C(=O)N3CCN(C4CCC4)CC3)c(Cl)c2)c1C#Cc1ccc(N)nc1 [Example E-252]
IC50: 48.2 nM

CCc1ncnc(-c2ccc(C(=O)N3CCN(CCO)CC3)c(F)c2)c1C#Cc1ccc(N)nc1 [Example D-91]
IC50: 109 nM

CCc1ncnc(-c2ccc(C(=O)N3CCN(c4ccccn4)CC3)c(C)c2)c1C#Cc1ccc(N)nc1 [Example E-130]
IC50: 69.1 nM

CCc1ncnc(-c2ccc(C(=O)N3CCC(N4CCOCC4)CC3)c(C)c2)c1C#Cc1ccc(N)nc1 [Example E-91]
IC50: 179 nM

CCCCN1CCN(C(=O)c2ccc(-c3ncnc(CC)c3C#Cc3ccc(N)nc3)cc2F)CC1 [Example D-83]
IC50: 219 nM

CCc1ncnc(-c2cc(F)c(C(=O)N3CCN(C)CC3)c(Cl)c2)c1C#Cc1ccc(N)nc1 [Example E-233]
IC50: 89.8 nM

CCc1ncnc(-c2ccc(C(=O)N3CC[C@H](N(C)C)C3)c(F)c2)c1C#Cc1ccc(N)nc1 [Example D-237]
IC50: 161 nM

CCc1ncnc(-c2ccc(C(=O)N3CCn4cnnc4C3)c(Cl)c2)c1C#Cc1ccc(N)nc1 [Example E-255]
IC50: 4.83 nM

Cc1ncnc(-c2ccc(Cl)c(C(=O)N3CCOCC3)c2)c1C#Cc1ccc(N)nc1 [Example C-40]
IC50: 459 nM

CCc1ncnc(-c2ccc(C(=O)N(C)CCN3CCCC3=O)c(F)c2)c1C#Cc1ccc(N)nc1 [Example D-119]
IC50: 55 nM
